Patent US20180172669A1, “SCREENING AND USE OF PIPERIDINO PYRAZOLOPYRIMIDINE COMPOUND” (Institute of Basic Medical Sciences, Chinese Academy of …, priority 2015, published 2018)

B1: BMP4: BMP ligand (Peprotech) used to stimulate ID1-V-LUC hES cells (protein, UniProt P12644 293-408, looked up)
Bone morphogenetic protein 4: SPKHHSQRARKKNKNCRRHSLYVDFSDVGWNDWIVAPPGYQAFYCHGDCPFPLADHLNSTNHAIVQTLVNSVNSSIPKACCVPTELSAISMLYLDEYDKVVLKNYQEMVVEGCGCR

What was measured:
MCT-PAH rats = test: Monocrotaline induced PAH rat model (MCT-PAH); type: in vivo, Sprague-Dawley rats; conditions: 4.5 mg/kg intragastric gavage, three weeks after MCT
Protocol: In vivo experiments with MCT-PAH rats: Monocrotaline (MCT, 55 mg/kg) or saline were administrated subcutaneously in single dose to male Sprague-Dawley rats (supplied by Nation Institutes for Food and Medicament Control). Three weeks after the injection of MCT, 4.5 mg/kg of piperidino pyrazolopyrimidine compound (A), saline or positive control (Sildenafil) were administrated respectively to the rats by intragastric gavage. Two weeks after the administration, the right ventricular systolic pressure (RVSP) was measured and the survival rate was calculated with the data of RVSP recorded in BL-420E system (FIG. 13).

phosphodiesterase = test: Inhibitory effect on phosphodiesterase; type: biochemical
[1] = system: Id1 promoter driven Venus-Luci dual reporter gene in ID1-V-LUC hES; test: ID1-V-LUC hES luciferase assay with compound (Example 4); type: cell-based, human; conditions: 18-24 h
Protocol: ID1-V-LUC hES were seeded in a 96-well plate and were grown to 80% confluency. The old medium was removed and the cells were washed with PBS, then mTeSR medium of human embryonic stem cell (Biowish.Co.,Ltd.) was added. The cells were starved for 6 hours prior to incubating with the compound: 1H-Pyrazolo[3,4-d]pyrimidine, 1-phenyl-4-(1-piperidinyl)- (Cas No :23000-46-6). The compound was serially diluted to 5, 2.5, 1.25, 0.625, 0.3 μg/mL in above-mentioned medium, and sequentially added in the 96-well plate in which the stem cells of the model were seeded. Triplicate replicates were used for each concentration. At the same time, the well in which the medium containing 0.1% DMSO was added as blank control. After the incubation of 18-24 h at 37° C. (5% CO2), the cells were lysed with cell lysis buffer CCLR (Promega), and the luciferase activity were detected using the method according to the instruction of the detection system of reporter gene, Luciferase Assay System (Promega).
The activity of luciferase resulting from the stimulation of the compounds at different concentrations was calculated using the following formula:
Regulation rate=Luciferase activity of compound-treated cells/Luciferase activity of DMSO-treated cells×100%

endothelial cells = test: Angiogenesis of endothelial cells on Matrigel; type: cell-based; conditions: 2-8 hours; for ability of angiogenesis compared with control: ECs on Matrigel
Protocol: The endothelial cells were grown in complete culture medium (1% FBS in SFM) to confluency. One day before the experiment of angiogenesis, the medium was replaced by 0.2% FBS SFM to starve the cells for 16 hours. One the day before the experiment, Matrigel (Corning, 10 mg/ml) was put on ice overnight for thawing, and on the day of experiment, Matrigel was added in the wells of the pre-chilled 96-well plate (50 μl per well) and was distributed evenly in the wells. Then the plate was put in the incubator and incubated at 37 □ for 30 mins. Afterwards, the medium for starvation was removed and the cells were washed twice with DPBS, then Accutase enzyme was added to digest the cells for 1 minute. Later on, the SFM medium for starvation was added to resuspend the cells, and the cells were gently pipetted to form single cell suspension and centrifuged in room temperature at 1000 rpm for 4 mins. The cells were resuspended in SFM medium for starvation and counted. Then, the cells were seeded in 1×10^4 cells per well, and were gently shook to distributed evenly before putting in the incubator at 37 □. The angiogenesis was observed within 2-8 hours.

[2] = system: Id1 promoter driven Venus-Luci dual reporter gene in ID1-V-LUC hES; test: ID1-V-LUC hES differentiated cells stimulated with BMP4, luciferase activity; type: cell-based, human; conditions: after 4 hours of stimulation with 6.25 ng/mL of BMP4, differentiated cells
Protocol: Id1-Venus-Luc-MC1-DTA plasmid was linearized with AsiSI, and then the resulting plasmid was electroporated into human embryonic stem cells (H9) of P57 (a commercially available human embryonic stem cells which could be passage to expand). At 37° C., CO2 5%, the cells were cultured on the DR4 MEF-feeder-cells (APPLIEDSTEMCELL, Inc., U.S.) with the medium containing serum replacement, and the medium was replaced by fresh medium daily. BioRad electroporation machine (ZAP: 250 V, uF 500, TC 8.6) was used for electroporation, then 19 clones were screened out using puromycin, and the clones with green fluorescence were picked out (the cells containing MC1-DTA plasmid cannot survive). The consistency between fluorescent activity and expression of endogenous Id gene was measured (FIG. 8).
The luciferase activity increased over time (0, 1, 2 and 5 hours) after the stimulation with of BMP4. The effect of external stimulus on the expression of Id gene can be reflected maximally by expression level of luciferase. Therefore, clone 2 (named as ID1-V-LUC hES) was selected and was used to carry out the secondary screening for the compounds (FIG. 9). ID1-V-LUC hES was differentiated toward early mesoderm, also the vascular cell with smooth muscle cell markers (α SMA, Calponin) were obtained. […]

Row | Molecule | pulmonary arterial pressure (right ventricular systolic pressure, RVSP) of MCT-PAH rats (MCT-PAH rats; measured two weeks after the administration) | survival rate of the rats with MCT-PAH (MCT-PAH rats; two weeks after the administration) | inhibitory effect on phosphodiesterase (phosphodiesterase) | expression level of luciferase of the stem cells of the model ([1]; 5, 2.5, 1.25, 0.625, 0.3 μg/mL) | peak expression level of luciferase (regulation rate) ([1]; concentration of the compound 2.5 μg/mL, vs DMSO) | ability of angiogenesis relative to VEGF treated ECs (endothelial cells; 1 μM) | ability of angiogenesis compared with control (endothelial cells; 1 μM) | ability of angiogenesis relative to VEGF treated ECs (endothelial cells; 5 μM) | ability of angiogenesis compared with control (endothelial cells; 5 μM) | regulation rate of ID1-V-LUC [2]
1 | c1ccc(-n2ncc3c(N4CCCCC4)ncnc32)cc1 [piperidino pyrazolopyrimidine compound, 1H-Pyrazolo[3,4-d]pyrimidine,1-phenyl-4-(1-piperidinyl)-] | decreased significantly | increased obviously | weak inhibitory effect | up-regulated | 3.31 fold | comparable | significantly increased | comparable | significantly increased | 
2 | B1 |  |  |  |  |  |  |  |  |  | 7.5 fold
